Reference: ChEMBL document CHEMBL1141171, “Selective estrogen receptor modulators with conformationally restricted side chains. Synthesis and structure-activity relationship of ERalpha-selective tetrahydroisoquinoline ligands” (J Med Chem, 2005)

experiment: Steady state volume of distribution in rat after administration of 1 mg/kg (iv) and 5 mg/kg (po); assay type: ADME, organism-based; conditions: in vivo, read-out: Vss

| SMILES | Vd [L/kg] |
| --- | --- |
| Oc1ccc2c(c1)CCN(c1ccccc1)C2c1ccc(OCCN2CCCCC2)cc1 (stereo unspecified) | 13.8 |
| CN1CCC(c2ccc(C3c4ccc(O)cc4CCN3c3ccc(F)cc3)cc2)CC1 (stereo unspecified) | 15.8 |
| Oc1ccc2c(c1)CCN(c1ccccc1)C2c1ccc(N2CCN3CCCCC3C2)cc1 (stereo unspecified) | 9.2 |
| CC(C)N1CCN(c2ccc(C3c4ccc(O)cc4CCN3c3cccc(O)c3)cc2)CC1 (stereo unspecified) | 5 |
| Oc1ccc2c(c1)CC[C@H](c1ccccc1)[C@@H]2c1ccc(OCCN2CCCC2)cc1 [LASOFOXIFENE] | 14.7 |
| O=C(c1ccc(OCCN2CCCCC2)cc1)c1c(-c2ccc(O)cc2)sc2cc(O)ccc12 [RALOXIFENE] | 17.6 |

experiment: Maximum plasma concentration of compound in rat after peroral administration of 5 mg/kg; assay type: ADME, organism-based; design: dose 5 mg/kg, route oral; conditions: po

| SMILES | Cmax [nM] |
| --- | --- |
| Oc1ccc2c(c1)CCN(c1ccccc1)C2c1ccc(OCCN2CCCCC2)cc1 (stereo unspecified) | 31 |
| CN1CCC(c2ccc(C3c4ccc(O)cc4CCN3c3ccc(F)cc3)cc2)CC1 (stereo unspecified) | 26.5 |
| Oc1ccc2c(c1)CCN(c1ccccc1)C2c1ccc(N2CCN3CCCCC3C2)cc1 (stereo unspecified) | 29.7 |
| CC(C)N1CCN(c2ccc(C3c4ccc(O)cc4CCN3c3cccc(O)c3)cc2)CC1 (stereo unspecified) | 57.2 |
| Oc1ccc2c(c1)CC[C@H](c1ccccc1)[C@@H]2c1ccc(OCCN2CCCC2)cc1 [LASOFOXIFENE] | 15.5 |
| O=C(c1ccc(OCCN2CCCCC2)cc1)c1c(-c2ccc(O)cc2)sc2cc(O)ccc12 [RALOXIFENE] | 7.5 |

experiment: Total clearance of compound in rat after administration of 1 mg/kg (iv) and 5 mg/kg (po); assay type: ADME, organism-based; conditions: in vivo

| SMILES | clearance [mL/min/kg] |
| --- | --- |
| Oc1ccc2c(c1)CCN(c1ccccc1)C2c1ccc(OCCN2CCCCC2)cc1 (stereo unspecified) | 51.9 |
| CN1CCC(c2ccc(C3c4ccc(O)cc4CCN3c3ccc(F)cc3)cc2)CC1 (stereo unspecified) | 52.4 |
| Oc1ccc2c(c1)CCN(c1ccccc1)C2c1ccc(N2CCN3CCCCC3C2)cc1 (stereo unspecified) | 28.4 |
| CC(C)N1CCN(c2ccc(C3c4ccc(O)cc4CCN3c3cccc(O)c3)cc2)CC1 (stereo unspecified) | 17.9 |
| Oc1ccc2c(c1)CC[C@H](c1ccccc1)[C@@H]2c1ccc(OCCN2CCCC2)cc1 [LASOFOXIFENE] | 55.7 |
| O=C(c1ccc(OCCN2CCCCC2)cc1)c1c(-c2ccc(O)cc2)sc2cc(O)ccc12 [RALOXIFENE] | 158 |

experiment: in vivo; conditions: rat, po, 5 mg/kg

| SMILES | bioavailability [%] |
| --- | --- |
| CN1CCC(c2ccc(C3c4ccc(O)cc4CCN3c3ccc(F)cc3)cc2)CC1 (stereo unspecified) | 64 |
| Oc1ccc2c(c1)CCN(c1ccccc1)C2c1ccc(N2CCN3CCCCC3C2)cc1 (stereo unspecified) | 49 |
| CC(C)N1CCN(c2ccc(C3c4ccc(O)cc4CCN3c3cccc(O)c3)cc2)CC1 (stereo unspecified) | 44 |
